Reference: patent US8969020B2, “Peptide sequence that promotes tumor invasion” (MetaMol Theranostics LLC, priority 2005, dated 2015)

Legend:
Assay type in all cases: cell-based, human
MCF-7 cells [1] = assay: Soft agar colony formation by MCF-7 cells with synthetic peptide added; conditions: after ten days, peptide replenished with every addition of medium
Description: To assess effect on soft agar colony formation, 5×10^5 MCF-7 cells per 60-mm dish were plated in triplicates with a top layer of 0.3% agar (BACTO Agar, Difco, Detroit Mich.) and a bottom layer of 0.5% agar (both in a-MEM). Peptide SEQ ID NO: 37 was added at the indicated concentrations upon plating and was replenished with every addition of medium. Every other day, 0.4 ml of medium was supplemented. After ten days, photographs were taken at high and low magnification and the surface area of all clones in five fields was measured with the imaging software ImageJ (NIH) or Metamorph.
(§1) 5×10^5 MCF-7 cells per 60-mm dish were plated in triplicates with a top layer of 0.3% agar (BACTO Agar, Difco, Detroit, Mich.) and a bottom layer of 0.5% agar (both in α-MEM). Peptide was added at the indicated concentrations upon plating and was replenished with every addition of medium. For the investigation of cell growth rates, MCF-7 cells were plated at 5000 cells/well in 24-well plates in the presence or absence of peptide. Effects of a synthetic peptide on MDA-MB-435 cells are shown in FIG. 9C after 10 days in the presence or absence of synthetic peptides. hOPN Exon-5 peptide (NAVSSEETNDFKQE) SEQ ID NO: 34 and scrambled hOPN-c peptide (SSEEQETGVEKASSNS) SEQ ID NO: 33 served as non-specific controls.

MCF-7 cells [2] = assay: Cell growth rate of MCF-7 cells in 24-well plates with or without peptide; conditions: 5000 cells/well, daily cell counts
Description: Two control peptides (hOPN-c scrambled sequence SEQ ID NO: 33 and hOPN-exon5 SEQ ID NO: 34) had no effect (data not shown). […] For investigation of cell growth rates, MCF-7 cells were plated at 5000 cells/well in 24-well plates in the presence or absence of peptide. Daily, five wells per group were harvested by trypsinization and the cell numbers were determined in a Coulter™ Z-Series Counter.
as §1

MCF-7 cells [3] = assay: Adhesion of MCF-7 cells to coated wells; conditions: 2 hours at 37° C., 96-well plate coated overnight
Description: 96-well polystyrene plates were coated with the indicated amounts of GST-OPN forms or control fibronectin ([…]) in […] at 4° C. overnight. The wells were washed twice with cold PBS followed by blocking with 1% BSA for 1 h at 37° C. MCF-7 parental cells were used to assay adhesion. Cells were trypsinized and treated with soybean trypsin inhibitor, then washed twice with PBS and resuspended in adhesion buffer (0.1% BSA, 1 mM sodium pyruvate, 2 mM MgCl2). Cells (2×10^4 cell/well) were added to the above 96-well plates and allowed to adhere at 37° C. for two hours. Non-adherent cells were removed by rinsing twice with PBS. Adherent cells were counted and photographed. For adhesion to aggregated OPN, 1 μg of GST or GST-OPN forms were added to 96-well plated in aggregation buffer (0.2 M NaCl, 0.05 M Tris-HCl, pH 7.6, 5 mM CaCl2 final concentration) and incubated at 4° C. overnight. All adhesion assays were performed with triplicate wells and were repeated at least three times.
Stably transfected cells were plated at 5000 cells/well (24-well plate) on day 0. On every consecutive day, five wells per cell line were harvested and the total number of cells was counted. […] Aggregation was assessed after 16 hours at increasing calcium concentrations. Consecutively denaturing, non-reducing SDS-PAGE and Western blotting for OPN was performed. […]

Row | Substance | size of the clones formed in soft agar (MCF-7 cells [1]) | cell growth (MCF-7 cells [2]) | cell spreading of adhered cells on coated plastic (MCF-7 cells [3])
1 | Ac-SGSSEEKQNAVSSEET-NH2 [SEQ ID NO: 37] | increasing the size of the clones formed in soft agar | no effect on cell growth | –
2 | NAVSSEETNDFKQE (Control peptide derived from Exon 5) [SEQ ID NO: 34, hOPN Exon-5 peptide, non-specific control, reference compound] | no effect | – | –
3 | SGSSEEKQNAVSSEET (Peptide representing a domain encompassing the splice junction of Exon 3 and 5) [SEQ ID NO: 8, OPNc peptide, domain around the splice junction of OPN variant-c] | enhanced soft agar clone formation | did not support the growth of cells in plastic dishes | –
4 | SSEEQETGVEKASSNS (Control peptide for OPNcPEP) [SEQ ID NO: 33, scrambled hOPN-c peptide, non-specific control, reference compound] | no effect | – | –
5 | fibronectin | – | – | cell spreading
